pKi: −log10 of the molar value.
Target: T1, human RIP1 kinase domain (2-375) (Homo sapiens (Human), UniProt Q13546)
Assay: not given
Details: RIP1 kinase inhibition, tight-binding apparent Ki; 50 nM enzyme, 50 μM ATP, 2 hours incubation

T1 sequence (Q13546 2-375): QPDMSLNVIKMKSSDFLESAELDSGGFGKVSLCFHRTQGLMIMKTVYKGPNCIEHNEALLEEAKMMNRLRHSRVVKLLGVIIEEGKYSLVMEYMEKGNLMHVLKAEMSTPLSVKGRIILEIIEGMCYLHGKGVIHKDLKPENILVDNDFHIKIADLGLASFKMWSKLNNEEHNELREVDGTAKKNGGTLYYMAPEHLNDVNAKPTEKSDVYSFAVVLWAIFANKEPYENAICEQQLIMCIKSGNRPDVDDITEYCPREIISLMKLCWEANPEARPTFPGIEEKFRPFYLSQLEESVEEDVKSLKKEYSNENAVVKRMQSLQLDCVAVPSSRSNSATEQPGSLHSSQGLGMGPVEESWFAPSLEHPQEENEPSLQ

| SMILES | pKi |
| --- | --- |
| O=C(c1nc2n(n1)[C@H](c1ccccc1Cl)CC2)C1CC1 (single isomer, unassigned) [Example 77] | 7.85 |
| O=C(c1nc2n(n1)[C@H](c1ccccc1)C[C@@H]2F)C1CC1C(F)(F)F (stereo partly drawn) [Example 81, [(5S,7S)-7-fluoro-5-phenyl-6,7-dihydro-5H-pyrrolo[1,2-b][1,2,4]triazol-2-yl]-[2-(trifluoromethyl)cyclopropyl]methanone] | 7.55 |

Second part, the compound after the results:

| pKi | SMILES |
| --- | --- |
| 8.00 | O=C(c1nc2n(n1)[C@H](c1ncccc1F)C[C@@H]2F)C1CC1 (single isomer, unassigned) [Example 150] |
| 8.30 | O=C(c1cc2n(n1)[C@H](c1ccccc1)C[C@@H]2F)C1CC1 (single isomer, unassigned) [Example 159] |
| 8.40 | O=C(c1nc2n(n1)[C@H](c1ccccc1)C[C@@H]2Cl)C1CC1 (single isomer, unassigned) [Example 116] |
| 8.51 | O=C(c1nc2n(n1)[C@H](c1cccc(F)c1F)C[C@@H]2F)C1CC1 (single isomer, unassigned) [Example 106] |
| 7.39 | CCC[C@@H]1C[C@H](F)c2nc(C(=O)C3CC3)nn21 (single isomer, unassigned) [Example 93] |
| 6.06 | CC[C@@H]1C[C@H](F)c2nc(C(=O)C3CC3)nn21 (single isomer, unassigned) [Example 92] |

Target: T1, human RIP1 kinase domain (2-375)
Assay: biochemical
Details: RIP1 kinase inhibition, tight-binding apparent Ki, 50 nM enzyme, 50 μM ATP, 2 hours incubation
Method: RIP1 Kinase Inhibition Assays (Biochemical Assay)
The ability of the receptor interacting protein kinase (RIPK1) to catalyze the hydrolysis of adenosine-5′-triphosphate (ATP) is monitored using the Transcreener ADP (adenosine-5′-diphosphate) assay (BellBrook Labs). Purified human RIP1 kinase domain (2-375) (50 nM) derived from a baculovirus-infected insect cell expression system is incubated with test compounds for 2 hours in 50 mM Hepes buffer (pH 7.5) containing 30 mM MgCl2, 1 mM dithiothreitol, 50 μM ATP, 0.002% Brij-35, and 0.5% dimethyl sulfoxide (DMSO). […] The tracer bound to the antibody is displaced by the ADP generated during the RIP1K reaction, which causes a decrease in fluorescence polarization that is measured by laser excitation at 633 nm with a FP microplate reader M1000. Fractional activity was plotted against test article concentration. Using Genedata Screener software (Genedata; Basel, Switzerland), the data were fit to the tight-binding apparent inhibition constant (Ki^app) Morrison equation [Williams, J. W. and Morrison, J. F. (1979) The kinetics of reversible tight-binding inhibition. […] The following equation was used to calculate fractional activity and Ki^app:
[formula] where [E]T and [I]T are the total concentrations of active enzyme and test article, respectively.

| pKi | SMILES |
| --- | --- |
| > 8.30 | O=C(c1nc2n(n1)[C@H](c1ccccc1)C[C@@H]2F)[C@@]12COC[C@@H]1C2 (racemic) [Example 143, [rac-(5S,7S)-7-fluoro-5-phenyl-6,7-dihydro-5H-pyrrolo[1,2-b][1,2,4]triazol-2-yl]-[rac-(1R,5R)-3-oxabicyclo[3.1.0]hexan-1-yl]methanone] |
| 7.74 | [2H]C1([2H])C[C@@H](c2ccccc2)n2nc(C(=O)C3CC3)nc21 (single isomer, unassigned) [Example 114] |
| 8.40 | CCC1(C(=O)c2nc3n(n2)[C@H](c2ccccc2)C[C@@H]3F)CC1 (racemic) [Example 125, (1-ethylcyclopropyl)-[rac-(5S,7S)-7-fluoro-5-phenyl-6,7-dihydro-5H-pyrrolo[1,2-b][1,2,4]triazol-2-yl]methanone] |
| 7.33 | CC1(C(=O)c2nc3n(n2)[C@H](c2ccccc2)C[C@@H]3F)CCCO1 (mixture of isomers) [Example 129, (2-methyltetrahydrofuran-2-yl)-[rac-(5S,7S)-7-fluoro-5-phenyl-6,7-dihydro-5H-pyrrolo[1,2-b][1,2,4]triazol-2-yl]methanone] |
| > 8.30 | O=C(c1nc2n(n1)[C@H](c1ccccc1)C[C@@H]2F)[C@H]1CCOC1 (racemic) [Example 131, [rac-(5S,7S)-7-fluoro-5-phenyl-6,7-dihydro-5H-pyrrolo[1,2-b][1,2,4]triazol-2-yl]-[rac-(3S)-tetrahydrofuran-3-yl]methanone] |
| 8.52 | O=C(c1nc2n(n1)[C@H](c1ccccc1)C[C@@H]2F)[C@H]1C[C@@H]1C(F)(F)F (racemic) [Example 160, [rac-(5S,7S)-7-fluoro-5-phenyl-6,7-dihydro-5H-pyrrolo[1,2-b][1,2,4]triazol-2-yl]-[rac-(1S,2S)-2-(trifluoromethyl)cyclopropyl]methanone] |
| > 8.30 | C[C@@]1(C(=O)c2nc3n(n2)[C@H](c2ccccc2)C[C@@H]3F)CCOC1 (racemic) [Example 137, [rac-(5S,7S)-7-fluoro-5-phenyl-6,7-dihydro-5H-pyrrolo[1,2-b][1,2,4]triazol-2-yl]-[rac-(3R)-3-methyltetrahydrofuran-3-yl]methanone] |
| 7.49 | O=C(CC1CCOCC1)c1nc2n(n1)[C@H](c1ccccc1)C[C@@H]2F (racemic) [Example 136, 1-[rac-(5S,7S)-7-fluoro-5-phenyl-6,7-dihydro-5H-pyrrolo[1,2-b][1,2,4]triazol-2-yl]-2-tetrahydropyran-4-yl-ethanone] |
| 6.85 | O=C(c1nc2n(n1)[C@H](c1ccccc1)C[C@@H]2F)[C@@H]1C[C@@H]2CC[C@H]1O2 (racemic) [Example 139, [rac-(5S,7S)-7-fluoro-5-phenyl-6,7-dihydro-5H-pyrrolo[1,2-b][1,2,4]triazol-2-yl]-[rac-(1R,2R,4S)-7-oxabicyclo[2.2.1]heptan-2-yl]methanone] |
| 6.66 | O=C(c1nc2n(n1)[C@H](c1ccccc1)C[C@@H]2F)[C@H](O)C(F)(F)F (racemic) [Example 134, rac-(2S)-3,3,3-trifluoro-2-hydroxy-1-[rac-(5S,7S)-7-fluoro-5-phenyl-6,7-dihydro-5H-pyrrolo[1,2-b][1,2,4]triazol-2-yl]propan-1-one] |
| 7.80 | O=C(c1nc2n(n1)[C@H](c1ccccc1)C[C@@H]2F)[C@H]1CC12CC2 (racemic) [Example 162, [rac-(5S,7S)-7-fluoro-5-phenyl-6,7-dihydro-5H-pyrrolo[1,2-b][1,2,4]triazol-2-yl]-[rac-(2S)-spiro[2.2]pentan-2-yl]methanone] |
| 7.89 | N#C[C@@H]1C[C@H]1C(=O)c1nc2n(n1)[C@H](c1ccccc1)C[C@@H]2F (mixture of isomers) [Example 105, rac-(1R,2R)-2-[(5S,7S)-7-fluoro-5-phenyl-6,7-dihydro-5H-pyrrolo[1,2-b][1,2,4]triazole-2-carbonyl]cyclopropanecarbonitrile] |
| 6.80 | N#CC1CC1C(=O)c1nc2n(n1)[C@H](c1ccccc1)C[C@@H]2F (mixture of isomers) [Example 86, 2-[rac-(5S,7S)-7-fluoro-5-phenyl-6,7-dihydro-5H-pyrrolo[1,2-b][1,2,4]triazole-2-carbonyl]-cyclopropanecarbonitrile] |
| 7.24 | O=C(c1nc2n(n1)[C@H](c1ccccc1)C[C@@H]2F)C1CCOCC1 (racemic) [Example 126, [rac-(5S,7S)-7-fluoro-5-phenyl-6,7-dihydro-5H-pyrrolo[1,2-b][1,2,4]triazol-2-yl]-tetrahydropyran-4-yl-methanone] |
| 8.40 | O=C(c1nc2n(n1)[C@H](c1ccccc1)C[C@@H]2F)[C@@H]1CC12CC2 (racemic) [Example 163, [rac-(5S,7S)-7-fluoro-5-phenyl-6,7-dihydro-5H-pyrrolo[1,2-b][1,2,4]triazol-2-yl]-[rac-(2R)-spiro[2.2]pentan-2-yl]methanone] |

Same assay, conditions: tight-binding apparent inhibition constant (Ki app, Morrison equation), 50 nM enzyme, 50 μM ATP, 2 hours incubation

| pKi | SMILES |
| --- | --- |
| 6.38 | Cn1cc(C(=O)c2nc3n(n2)[C@@H](c2ccccc2)C[C@H]3F)cn1 (stereo in doubt) [Example 48, (1-methylpyrazol-4-yl)-[rac-(5R,7R)-7-fluoro-5-phenyl-6,7-dihydro-5H-pyrrolo[1,2-b][1,2,4]triazol-2-yl]methanone] |
| < 5.03 | O=C(c1nc2n(n1)[C@@H](c1ccccc1)C[C@H]2F)C1CC1 (stereo in doubt) [Example 35, cyclopropyl-[rac-(5R,7R)-7-fluoro-5-phenyl-6,7-dihydro-5H-pyrrolo[1,2-b][1,2,4]triazol-2-yl]methanone] |
| 6.87 | O=C(CC(F)(F)F)c1nc2n(n1)[C@@H](c1ccccc1)C[C@H]2F (racemic) [Example 29, 3,3,3-trifluoro-1-[rac-(5R,7R)-7-fluoro-5-phenyl-6,7-dihydro-5H-pyrrolo[1,2-b][1,2,4]triazol-2-yl]propan-1-one] |
| < 5.00 | Cn1cc(C(=O)c2nc3n(n2)[C@H](c2ccccc2)C[C@@H]3F)cn1 (stereo in doubt) [Example 40, (1-methylpyrazol-4-yl)-[rac-(5S,7S)-7-fluoro-5-phenyl-6,7-dihydro-5H-pyrrolo[1,2-b][1,2,4]triazol-2-yl]methanone] |
| 7.42 | CC1(C(=O)c2nc3n(n2)[C@H](c2ccccc2)C[C@@H]3F)CC1 (racemic) [Example 26, (rac-(5S,7S)-7-fluoro-5-phenyl-6,7-dihydro-5H-pyrrolo[1,2-b][1,2,4]triazol-2-yl)-(1-methylcyclopropyl)methanone] |
| 7.92 | O=C(c1nc2n(n1)[C@@H](c1ccccc1)C[C@H]2F)C1CCC1 (racemic) [Example 43, cyclobutyl-[rac-(5R,7R)-7-fluoro-5-phenyl-6,7-dihydro-5H-pyrrolo[1,2-b][1,2,4]triazol-2-yl]methanone] |
| 7.12 | CC(=O)c1nc2n(n1)[C@@H](c1ccccc1)C[C@H]2F (racemic) [Example 50, 1-[rac-(5R,7R)-7-fluoro-5-phenyl-6,7-dihydro-5H-pyrrolo[1,2-b][1,2,4]triazol-2-yl]ethanone] |
| 6.66 | O=C(c1nc2n(n1)[C@H](c1ccccc1)C[C@@H]2F)C1C2COCC21 (mixture of isomers) [Example 56, 3-oxabicyclo[3.1.0]hexan-6-yl-[rac-(5S,7S)-7-fluoro-5-phenyl-6,7-dihydro-5H-pyrrolo[1,2-b][1,2,4]triazol-2-yl]methanone] |
| 7.48 | CC(C)(C#N)C(=O)c1nc2n(n1)[C@H](c1ccccc1)C[C@@H]2F (racemic) [Example 22, 3-(rac-(5S,7S)-7-fluoro-5-phenyl-6,7-dihydro-5H-pyrrolo[1,2-b][1,2,4]triazol-2-yl)-2,2-dimethyl-3-oxo-propanenitrile] |
| 5.55 | CC(C)(C)C(=O)c1nc2n(n1)[C@H](c1ccccc1)C[C@@H]2F (stereo in doubt) [Example 37, 2,2-dimethyl-1-[rac-(5S,7S)-7-fluoro-5-phenyl-6,7-dihydro-5H-pyrrolo[1,2-b][1,2,4]triazol-2-yl]propan-1-one] |
| 9.52 | O=C(c1nc2n(n1)[C@H](c1ccccc1)C[C@@H]2F)C1(F)CC1 (single isomer, unassigned) [Example 61] |
| 7.67 | O=C(c1ccccc1)c1nc2n(n1)[C@H](c1ccccc1)C[C@@H]2F (racemic) [Example 12, phenyl-[rac-(5S,7S)-7-fluoro-5-phenyl-6,7-dihydro-5H-pyrrolo[1,2-b][1,2,4]triazol-2-yl]methanone] |
| 6.65 | Cn1cc(C(=O)c2nc3n(n2)[C@@H](c2ccccc2)C[C@H]3F)cn1 (stereo in doubt) [Example 39, (1-methylpyrazol-4-yl)-[rac-(5R,7R)-7-fluoro-5-phenyl-6,7-dihydro-5H-pyrrolo[1,2-b][1,2,4]triazol-2-yl]methanone] |
